Broadly, the IC50 is the concentration that gives 50% inhibition.

The subject of one assay is GVHD. The assay is described as follows: Graft-versus-host disease (GVHD) model. It counts as in vivo. The note with it: bid, by gavage, first 5 days; assessed over 36 days after adoptive transfer of cells; vs vehicle control; FIG. 3. How it is done:
In a GVHD model, an irradiated F1 hybrid recipient population, bred across a parental major H2 mismatch, was infused with maternal cells activated in vitro with conconavalian A (Con A) and IL-12. LSF and the compound of Example 7 (CT12441) were compared with a vehicle control for efficacy. Both compounds were administered on a bid schedule, by gavage, for the first 5 days.
In the case of `CNCc1nc2c([nH]1)c(=O)n(CCCC[C@@H](C)O)c(=O)n2C` [CT12441, (R)-1-(5-hydroxyhexyl)-3-methyl-8-(N-methyl)aminomethylxanthine], the survival entry was “significant increase of survival”.

Regarding `C[C@@H](O)CCCCn1c(=O)c2c(ncn2C)n(C)c1=O` [LSF, (R)-1-(5-Hydroxyhexyl)-3,7-dimethylxanthine, reference compound], the survival entry is listed as “significant increase of survival”.

A further assay relates to IL-12 induced Th1 differentiation (splenic T cells). Briefly: IL-12 dependent in vitro T-helper cell (Th1) differentiation assay, IFN-γ production upon secondary anti-CD3 stimulation. The class given is cell-based. To be noted: read-out: IC50, inhibition of IL-12 induced Th1 differentiation as defined by IFN-γ production. The method, then:
This example illustrates the inventive compounds' ability to suppress Th1 differentiation in vitro by blocking IL-12 signalling. Each of compounds A through Y were tested in an IL-12 dependent in vitro T-helper cell differentiation assay as described in LeGross et al., J. Exp. Med., 172:921-929 (1990). Recombinant IL-12 was used to induce Th1 differentiation. Spenic T cells were purified utilizing the antibodies RA3-3A1/6.1 (anti-B220), J11d and MAR18.5 (anti-rat kappa chain) to deplete the B cells via complement mediated toxicity following the procedure set forth in Klaus et al., J. Immunol., 149:1867-1875 (1992). Splenic T cells were stimulated at 5×10^5/ml with insoluble anti-CD3 alone (145-2C11, Pharmingen, San Diego, Calif.), or anti-CD3 and 5 U/ml IL-12, with and without each inventive compound. After seven days, equal numbers of viable cells were restimulated for 24 hours with anti-CD3 without the inventive compounds, and the supernatants were collected and assayed for IFN-γ production. IFN-γ and IL-4 levels were measured by Interest kits from Genzyme specific for IFN-γ and IL-4.
Th1 differentiation was induced by culturing anti-CD3 stimulated T cells in the presence of exogenous IL-12. […] The values in the “IC50 μM” column were determined by measuring the inhibition of IL-121 induced Th1 differentiation as defined by IFN-γ production upon secondary stimulation with anti-CD3 alone. None of the compounds affected the viability or recovery of T cells after one week of culture.
For `CNc1nc2c([nH]1)c(=O)n(CCCC[C@@H](C)O)c(=O)n2C` [CT12447, (R)-1-(5-hydroxyhexyl)-3-methyl-8-methylaminoxanthine], the IC50 was found to be 25 µM.

As to `C[C@@H](O)CCCCn1c(=O)c2[nH]c(=O)[nH]c2n(C)c1=O` [CT12452, (R)-1-(5-hydroxyhexyl)-3-methyluric acid], the IC50 is 35 µM.

Still in this assay, the particulars now being: splenic T cells, anti-CD3 and 5 U/ml IL-12, seven days with compound, restimulated 24 hours with anti-CD3 alone, read-out: IC50, inhibition of IL-12 induced Th1 differentiation as defined by IFN-γ production.
With `CC(CCCCn1c(=O)c2c(ncn2C)n(C)c1=O)NO` (centres unmarked) [CT7549, 1-(5-(N-Hydroxy)aminohexyl)-3,7-dimethylxanthine], the IC50 is 21 µM.

For `C[C@@H](O)CCCCn1c(=O)n(C)c(=O)c2c1ncn2C` [CT11495, (R)-3-(5-Hydroxyhexyl)-1,7-dimethylxanthine], the IC50 turned out to be 35 µM.

For `C[C@@H](O)CCCCn1c(=O)c2c([nH]c(=O)n2C)n(C)c1=O` [CT11499, (R)-1-(5-Hydroxyhexyl)-3,7-dimethyluric acid], the IC50 was 30 µM.

For `C[C@@H](O)CCCCn1c(=O)c2c(ncn2Cc2ccccc2)n(C)c1=O` [CT12404], the IC50 was 28 µM.

`Cc1nc2c(c(=O)n(CCCC[C@@H](C)O)c(=O)n2C)n1Cc1ccccc1` [CT12407, (R)-1-(5-hydroxyhexyl)-7-benzyl-3,8-dimethylxanthine]: the IC50 came to 30 µM.

As for `C[C@@H](O)CCCCn1c(=O)c2c(ncn2C)n(Cc2ccco2)c1=O` [CT12422, (R)-3-(2-Furylmethyl)-1-(5-hydroxyhexyl)-7-methylxanthine], the IC50 amounted to 19 µM.

Regarding `C[C@@H](O)CCCCn1c(=O)c2[nH]c(CN)nc2n(C)c1=O` [CT12440, (R)-8-Aminomethyl-1-(5-hydroxyhexyl)-3-methylxanthine], the IC50 amounted to 9 µM.

Turning to `CNCc1nc2c([nH]1)c(=O)n(CCCC[C@@H](C)O)c(=O)n2C` [CT12441, (R)-1-(5-hydroxyhexyl)-3-methyl-8-(N-methyl)aminomethylxanthine], the IC50 is 19 µM.

As to `Cc1cn(C)c2c1c(=O)n(CCCC[C@@H](C)O)c(=O)n2C` [CT12458, (R)-3-(5-Hydroxyhexyl)-1,7,9-dimethyl-2,4-pyrrolo[2,3-d]pyrimidinedione], the IC50 came to 27 µM.

Regarding `Cc1c[nH]c2c1c(=O)n(CCCC[C@@H](C)O)c(=O)n2C` [CT12459, (R)-1,9-dimethyl-3-(5-hydroxyhexyl)-2,4-pyrrolo[2,3-d]pyrimidinedione], the half-maximal inhibitory concentration (IC50) worked out at 17 µM.

As for `C[C@@H](O)CCCCn1c(=O)c2c(ncn2C)n(CCCCCCNC(=O)CCCC[C@@H]2SC[C@@H]3NC(=O)N[C@@H]32)c1=O` [CT12460, (R)-3-(6-biotinylamidohexyl)-1-(5-hydroxyhexyl)-7-methylxanthine], the IC50 stood at 21.8 µM.

For `C[C@@H](O)CCCCn1c(=O)c2nsnc2n(C)c1=O` [CT12461, (R)-3-(5-hydroxyhexyl)-1-methyl-[1,2,5]thiadiazolo[3,4]pyrimidine-2,4-dione], the IC50 was 17 µM.

With `C[C@@H](O)CCCCn1c(=O)c2[nH]nnc2n(C)c1=O` [CT12463, (R)-1-(5-Hydroxyhexyl)-3-methyl-8-azaxanthine], the IC50 came out at 31 µM.

With `C[C@@H](O)CCCCn1c(=O)c2c(nnn2C)n(C)c1=O` [CT12464, (R)-3,7-dimethyl-1-(5-hydroxyhexyl)-8-azaxanthine], the IC50 came out at 12 µM.

As to `C[C@@H](O)CCCCn1c(=O)c2nn(C)nc2n(C)c1=O` [CT12465, (R)-3,8-Dimethyl-1-(5-hydroxyhexyl)-8-azaxanthine], the IC50 stood at 15 µM.

With `CNc1nc2c(c(=O)n(CCCC[C@@H](C)O)c(=O)n2C)n1C` [CT12481, (R)-3,7-dimethyl-1-(5-hydroxyhexyl)-8-N-methylaminoxanthine], the IC50 was determined as 24.7 µM.

`C[C@@H](O)CCCCn1c(=O)c2c(nc(N(C)C)n2C)n(C)c1=O` [CT12485, (R)-3,7-Dimethyl-8-N,N-dimethylamino-1-(5-hydroxyhexyl)-xanthine]: the IC50 was determined as 10 µM.

Take `CSc1nc2c([nH]1)c(=O)n(CCCC[C@@H](C)O)c(=O)n2C` [CT12490, (R)-1-(5-Hydroxyhexyl)-3-methyl-8-methylsulfanylxanthine]: the IC50 is 20 µM.

`C[C@H](CCCCn1c(=O)c2c(ncn2C)n(C)c1=O)OP(=O)(O)O` [CT17557]: the IC50 was 9 µM.

For `C[C@H](O)CCCCn1c(=O)c2c(ncn2Cc2ccccc2)n(C)c1=O` [CT22404, (S)-1-(5-Hydroxyhexyl)-7-benzyl-3-methylxanthine], the IC50 is 10 µM.

Turning to `C[C@H](O)CCCCn1c(=O)c2c(nnn2C)n(C)c1=O` [CT22464, (S)-3,7-Dimethyl-1-(5-hydroxyhexyl)-8-azaxanthine], the IC50 stood at 30 µM.

On to `C[C@H](O)CCCCn1c(=O)c2nn(C)nc2n(C)c1=O` [CT22465, (S)-3,8-dimethyl-1-(5-hydroxyhexyl)-8-azaxanthine], for which the IC50 was determined as 14 µM.

The subject of another assay is adoptive transfer EAE. Briefly: Adoptive transfer experimental allergic encephalomyelitis (EAE) model. It counts as in vivo, mice. The note with it: bid, by gavage, first 5 days; vs vehicle only; FIG. 2. The method, then:
An adoptive transfer experimental allergic encephalomyelitis (EAE) model was used, in which the splenic T cells from actively immunized mice were cultured for 4 days in antigen-containing (myelin basic protein) medium. The cells were then transferred to naive recipients, which were then evaluated for clinical changes in motor nerve function in the presence or absence of treatment with LSF or the compound of Example 22 (CT11558). Both compounds were administered on a bid schedule, by gavage, for the first 5 days.
As for `C[C@H](CCCCn1c(=O)c2c(ncn2C)n(C)c1=O)N(C)C` [CT11558, (R)-1-(5-N,N-dimethylaminohexyl)-3,7-dimethylxanthine], the “magnitude of observable clinical deficits (motor nerve function)” value is given as “decrease in the magnitude” and the “onset of observable clinical deficits (motor nerve function)” value is “significant delay in the onset”.

Take `C[C@@H](O)CCCCn1c(=O)c2c(ncn2C)n(C)c1=O` [LSF, (R)-1-(5-Hydroxyhexyl)-3,7-dimethylxanthine, reference compound]: the “magnitude of observable clinical deficits (motor nerve function)” value was “decrease in the magnitude” and the “onset of observable clinical deficits (motor nerve function)” value is given as “significant delay in the onset”.

The test system of a further assay is IL-12 induced IFN-γ secretion. The assay is described as follows: IL-12 induced IFN-γ secretion (interferon gamma induction) assay in splenocyte culture. The class given is cell-based. To be noted: compound added to a culture of splenocytes; FIG. 1. How it is done:
The ability of IL-12 to induce generation of Th1 cells is aided by IFN-γ, a cytokine which is known to be induced by IL-12 itself. (R)-3-(N-biotinyl-6-aminohexyl)-1-(5-hydroxyhexyl)-7-methylxanthine (CT12460) and (R)-3-(N-biotinyl-2-aminoethyl)-1-(5-hydroxyhexyl)-7-methylxanthine (CT13410) were tested in an interferon gamma (IFN-γ) induction assay as described in Kobayashi, M., et al., “Identification and Purification of Natural Killer Cell Stimulatory Factor (NKSF), A Cytokine with Multiple Biologic Effects on Human Lymphocytes,” J. Exp. Med.U., 170:827-845 (at 829, 830 and 836) (1989). See also, Wolf, S., et al., “Interluekin 12: A Key Modulator of Immune Function,” Stem Cells, 12:154-168 (1994) and Trinchieri, supra.
Turning to `C[C@@H](O)CCCCn1c(=O)c2c(ncn2C)n(CCCCCCNC(=O)CCCC[C@@H]2SC[C@@H]3NC(=O)N[C@@H]32)c1=O` [CT12460, (R)-3-(6-biotinylamidohexyl)-1-(5-hydroxyhexyl)-7-methylxanthine], the “IL-12 induced IFN-γ secretion” value is reported as “inhibited”.

Consider `C[C@@H](O)CCCCn1c(=O)c2c(ncn2C)n(CCNC(=O)CCCC[C@@H]2SC[C@@H]3NC(=O)N[C@@H]32)c1=O` [CT13410, (R)-3-(6-biotinylamidoethyl)-1-(5-hydroxyhexyl)-7-methylxanthine], for which the “IL-12 induced IFN-γ secretion” value is recorded as “inhibited”.

Source of the values: patent publication US6878715B1, “Therapeutic compounds for inhibiting interleukin-12 signals and method for using same” (Cell Therapeutics, Inc., priority 1994, dated 2005).
